# Publication PMC6364417, “Kinase inhibitor library screening identifies synergistic drug combinations effective in sensitive and resistant melanoma cells” (Journal of Experimental & Clinical Cancer Research : CR, 2019)
# Legend:
# Assay in all cases: Kinase inhibitor library screening, PrestoBlue cell viability, 1 or 10 μM, 72 h
# [1] = test system: A375-GP cells (Dabrafenib-resistant); conditions: A375 GP
# A375 cells (parental) = conditions: A375 Parental
# [2] = test system: IGR37-GP cells (Dabrafenib-resistant); conditions: IGR37 GP
# [3] = test system: 501Mel-XP cells (Vemurafenib-resistant); conditions: 501Mel XP, in %
# [4] = test system: IGR37-XP cells (Vemurafenib-resistant); conditions: IGR37 XP
# IGR37 cells (parental) = conditions: IGR37 Parental, in %
# 501Mel cells (parental) = conditions: 501Mel Parental, in %
# Summary of the method: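 Each compound was applied to parental melanoma cells and to derivatives made resistant to Vemurafenib or Dabrafenib. After treatment, viability was read with PrestoBlue on a plate reader and expressed as % of untreated cells, with each line run at least in duplicate.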
# [5] = test system: 501Mel-GP cells (Dabrafenib-resistant); conditions: 501Mel GP, in %
# [6] = test system: A375-XP cells (Vemurafenib-resistant); conditions: A375 XP
structure (smiles),measurement,setting,value
O=C1NC(=O)/C(=C/c2ccc(-c3ccc(F)cc3O)o2)S1 [AS-252424],"Cell viability in kinase inhibitor library screening, A375 GP, 1μΜ","[1]; 1μΜ, 72 h",107.9
same,"Cell viability in kinase inhibitor library screening, A375 GP, 10μΜ","[1]; 10μΜ, 72 h",90.3
same,"Cell viability in kinase inhibitor library screening, A375 Parental, 10μΜ","A375 cells (parental); 10μΜ, 72 h",82.9
same,"Cell viability in kinase inhibitor library screening, A375 Parental, 1μΜ","A375 cells (parental); 1μΜ, 72 h",107.2
same,"Cell viability in kinase inhibitor library screening, IGR37 GP, 10μΜ","[2]; 10μΜ, 72 h",75.1%
same,"Cell viability in kinase inhibitor library screening, 501Mel XP, 1μΜ","[3]; 1μΜ, 72 h",109.3
same,"Cell viability in kinase inhibitor library screening, 501Mel XP, 10μΜ","[3]; 10μΜ, 72 h",84.7
same,"Cell viability in kinase inhibitor library screening, IGR37 XP, 10μΜ","[4]; 10μΜ, 72 h",42.3%
same,"Cell viability in kinase inhibitor library screening, IGR37 XP, 1μΜ","[4]; 1μΜ, 72 h, in %",93.7
same,"Cell viability in kinase inhibitor library screening, IGR37 Parental, 1μΜ","IGR37 cells (parental); 1μΜ, 72 h",103.0
same,"Cell viability in kinase inhibitor library screening, IGR37 Parental, 10μΜ","IGR37 cells (parental); 10μΜ, 72 h",94.5
same,"Cell viability in kinase inhibitor library screening, 501Mel Parental, 1μΜ","501Mel cells (parental); 1μΜ, 72 h",112.3
same,"Cell viability in kinase inhibitor library screening, 501Mel Parental, 10μΜ","501Mel cells (parental); 10μΜ, 72 h",97.9
same,"Cell viability in kinase inhibitor library screening, 501Mel GP, 1μΜ","[5]; 1μΜ, 72 h",105.9
same,"Cell viability in kinase inhibitor library screening, 501Mel GP, 10μΜ","[5]; 10μΜ, 72 h",85.7
same,"Cell viability in kinase inhibitor library screening, A375 XP, 1μΜ","[6]; 1μΜ, 72 h",115.1
same,"Cell viability in kinase inhibitor library screening, A375 XP, 10μΜ","[6]; 10μΜ, 72 h",96.7
CCCNC(=O)Nc1ccc(Oc2ncnc3cc(OC)c(OC)cc23)cc1Cl [KRN 633],cell viability (kinase inhibitor library screening),"[1]; 1μΜ, in %",99.0
same,cell viability (kinase inhibitor library screening),"[1]; 10μΜ, in %",89.8
same,cell viability (kinase inhibitor library screening),"A375 cells (parental); 1μΜ, in %",103.4
same,cell viability (kinase inhibitor library screening),"A375 cells (parental); 10μΜ, in %",92.6
same,cell viability (kinase inhibitor library screening),"[2]; 1μΜ, in %",92.2
same,cell viability (kinase inhibitor library screening),"[2]; 10μΜ, in %",93.4
same,cell viability (kinase inhibitor library screening),[3]; 10μΜ,80.1
same,cell viability (kinase inhibitor library screening),"[4]; 1μΜ, in %",98.3
same,cell viability (kinase inhibitor library screening),"[4]; 10μΜ, in %",68.5
same,cell viability (kinase inhibitor library screening),IGR37 cells (parental); 1μΜ,99.7
same,cell viability (kinase inhibitor library screening),IGR37 cells (parental); 10μΜ,109.9
same,cell viability (kinase inhibitor library screening),501Mel cells (parental); 1μΜ,94.4
same,cell viability (kinase inhibitor library screening),501Mel cells (parental); 10μΜ,91.7
same,cell viability (kinase inhibitor library screening),[5]; 1μΜ,106.2
same,cell viability (kinase inhibitor library screening),[5]; 10μΜ,89.7
same,cell viability (kinase inhibitor library screening),"[6]; 10μΜ, in %",103.6
COc1ccc(Cl)c(Nc2nc3ccccc3nc2NS(=O)(=O)c2cccc(NC(=O)C(C)(C)N)c2)c1 [XL147],"Cell viability in kinase inhibitor library screening, A375 GP, 1μΜ","[1]; 1μΜ, 72 h",91.5
same,"Cell viability in kinase inhibitor library screening, A375 GP, 10μΜ","[1]; 10μΜ, 72 h",84.7
same,"Cell viability in kinase inhibitor library screening, A375 Parental, 10μΜ","A375 cells (parental); 10μΜ, 72 h",88.5
same,"Cell viability in kinase inhibitor library screening, A375 Parental, 1μΜ","A375 cells (parental); 1μΜ, 72 h",99.8
same,"Cell viability in kinase inhibitor library screening, IGR37 GP, 10μΜ","[2]; 10μΜ, 72 h",88.3%
same,"Cell viability in kinase inhibitor library screening, IGR37 GP, 1μΜ","[2]; 1μΜ, 72 h, in %",103.8
same,"Cell viability in kinase inhibitor library screening, 501Mel XP, 1μΜ","[3]; 1μΜ, 72 h",93.7
same,"Cell viability in kinase inhibitor library screening, 501Mel XP, 10μΜ","[3]; 10μΜ, 72 h",83.3
same,"Cell viability in kinase inhibitor library screening, IGR37 XP, 10μΜ","[4]; 10μΜ, 72 h",62.4%
same,"Cell viability in kinase inhibitor library screening, IGR37 XP, 1μΜ","[4]; 1μΜ, 72 h, in %",98.4
same,"Cell viability in kinase inhibitor library screening, IGR37 Parental, 10μΜ","IGR37 cells (parental); 10μΜ, 72 h",90.5
same,"Cell viability in kinase inhibitor library screening, 501Mel Parental, 1μΜ","501Mel cells (parental); 1μΜ, 72 h",95.0
same,"Cell viability in kinase inhibitor library screening, 501Mel Parental, 10μΜ","501Mel cells (parental); 10μΜ, 72 h",91.9
same,"Cell viability in kinase inhibitor library screening, 501Mel GP, 10μΜ","[5]; 10μΜ, 72 h",87.3
same,"Cell viability in kinase inhibitor library screening, A375 XP, 1μΜ","[6]; 1μΜ, 72 h",100.4
same,"Cell viability in kinase inhibitor library screening, A375 XP, 10μΜ","[6]; 10μΜ, 72 h",100.4
C=CC(=O)Nc1cccc(Oc2nc(Nc3ccc(N4CCN(C)CC4)cc3)ncc2Cl)c1 [WZ3146],"cell viability, A375 GP, 1μΜ","[1]; 1μΜ, 72 h, in %",82.9
same,"cell viability, A375 GP, 10μΜ","[1]; 10μΜ, 72 h, in %",22.9
same,"cell viability, A375 Parental, 1μΜ","A375 cells (parental); 1μΜ, 72 h, in %",87.2
same,"cell viability, A375 Parental, 10μΜ","A375 cells (parental); 10μΜ, 72 h, in %",30.7
same,"cell viability, IGR37 GP, 10μΜ","[2]; 10μΜ, 72 h",39%
same,"cell viability, IGR37 GP, 1μΜ","[2]; 1μΜ, 72 h, in %",92.8
same,"cell viability, 501Mel XP, 1μΜ","[3]; 1μΜ, 72 h",78.6
same,"cell viability, 501Mel XP, 10μΜ","[3]; 10μΜ, 72 h",0.0384
same,"cell viability, IGR37 XP, 10μΜ","[4]; 10μΜ, 72 h",7%
same,"cell viability, IGR37 XP, 1μΜ","[4]; 1μΜ, 72 h, in %",73.3
same,"cell viability, IGR37 Parental, 1μΜ","IGR37 cells (parental); 1μΜ, 72 h",96.7
same,"cell viability, IGR37 Parental, 10μΜ","IGR37 cells (parental); 10μΜ, 72 h",56.4
same,"cell viability, 501Mel Parental, 10μΜ","501Mel cells (parental); 10μΜ, 72 h",1.1
same,"cell viability, 501Mel GP, 1μΜ","[5]; 1μΜ, 72 h",102.6
same,"cell viability, 501Mel GP, 10μΜ","[5]; 10μΜ, 72 h",53.7
same,"cell viability, A375 XP, 1μΜ","[6]; 1μΜ, 72 h, in %",94.3
same,"cell viability, A375 XP, 10μΜ","[6]; 10μΜ, 72 h, in %",20.1
